Laboratory results reported in EP4810040A2, “INHIBITORS OF APOL1 AND METHODS OF USING SAME” (priority 2020, dated 2022).
pIC50: −log10 of the molar value. Where two headings read alike, the source gives them in different places.

Biological target: T1, APOL1 G1 (Homo sapiens, UniProt O14791, I384M/S342G)
T1 sequence (O14791 28-398 S342G/I384M): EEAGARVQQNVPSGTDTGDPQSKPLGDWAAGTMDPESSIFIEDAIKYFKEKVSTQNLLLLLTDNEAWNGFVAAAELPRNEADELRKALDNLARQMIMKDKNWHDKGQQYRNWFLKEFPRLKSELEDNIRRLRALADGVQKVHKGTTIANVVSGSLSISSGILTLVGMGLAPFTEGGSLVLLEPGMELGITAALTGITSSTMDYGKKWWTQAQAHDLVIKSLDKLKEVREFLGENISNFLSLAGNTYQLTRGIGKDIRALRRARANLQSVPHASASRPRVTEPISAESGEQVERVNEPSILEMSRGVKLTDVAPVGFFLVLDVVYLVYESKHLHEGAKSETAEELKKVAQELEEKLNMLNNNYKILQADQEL
Assay: MultiTox-Fluor Multiplex Cytotoxicity Assay, tet-inducible APOL1 G1 T-REx-HEK293 cells
Format: cell-based
Parameters: expressed in transfected cells; host or cells: T-REx HEK293, clone G1 DC3.25 (pAAVS1-Puro-APOL1 G1)
Conditions: for IC90: read-out: Multi-Tox Assay IC90; for Emax: read-out: Multi-Tox Assay Max Activity (%)
Method in brief: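 Over 24 h at 37 °C, compounds (10-point 3-fold series from 10 µM, duplicate) were co-incubated with 50 ng/mL tetracycline inducing APOL1 G1 in T-REx-HEK293 cells. Viability/cytotoxicity measured by MultiTox-Fluor as dead-to-live fluorescence ratio, expressed as percent of control between uninduced and induced wells and fitted.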

[1] = HEK293, Multi-Tox Assay, APOL1 variant (G0/G1/G2) of the HEK293 cells not given
[2] = Multi-Tox Assay, APOL1 variant not given
[3] = Multi-Tox Assay, APOL1 variant (G0/G1/G2) not stated in Table 46
[4] = Multi-Tox Assay, APOL1 variant not stated in Table 46

Row | Compound | IC90 [1] [µM] | Multi-Tox Assay Max Activity (%) [2] [%] | further results
1 | C[C@H]1C[C@@]2(C[C@@H](c3ccon3)N1)OCCc1cc(Cl)sc12 (racemic) [Compound 96] | < 0.05 |  | Emax [2]: 99.8%
2 | C[C@H]1C[C@@]2(C[C@@H](c3cn(CCC(N)=O)nn3)N1)OC[C@@H](O)c1cc(Cl)sc12 [Compound 288] | 0.05 to 0.5 | 97.0 | 
3 | C[C@H]1C[C@@]2(C[C@@H](c3cccc4[nH]c(=O)oc34)N1)OCCc1cc(Cl)sc12 (racemic) [Compound 141] | 0.05 to 0.5 | 96.3 | 
4 | Cn1cc([C@@H]2C[C@]3(C[C@H](c4ccccc4)N2)OC[C@@H](O)c2cc(Cl)sc23)nn1 [Compound 387, (2'S,4S,6'R,7S)-2-chloro-2'-(1-methyltriazol-4-yl)-6'-phenyl-spiro[4,5-dihydrothieno[2,3-c]pyran-7,4'-piperidine]-4-ol] |  |  | IC90 [3]: > 0.5 µM; Emax [4]: 94%
5 | C[C@H]1C[C@@]2(C[C@@H](c3ccc(N(C)C)nc3)N1)OCCc1cc(Cl)sc12 (racemic) [Compound 89] | < 0.05 |  | Emax [2]: 99.3%
6 | COCC(O)Cn1cc([C@@H]2C[C@]3(C[C@H](C)N2)OC[C@@H](O)c2cc(Cl)sc23)nn1 (stereo partly drawn) [Compound 226] | 0.05 to 0.5 | 100.0 | 
7 | COCCOCCn1cc([C@@H]2C[C@]3(C[C@H](C)N2)OCC(F)(F)c2cc(Cl)sc23)nn1 [Compound 340] | 0.05 to 0.5 | 98.0 | 
8 | Clc1cc2c(s1)C1(C[C@@H](C3CC3)N[C@@H](C3CC3)C1)OCC2 (single isomer, unassigned) [Compound 206] | 0.05 to 0.5 |  | Emax [2]: 99.3%
9 | C[C@H]1C[C@@]2(C[C@@H](c3cn(CC4(F)CCOCC4)nn3)N1)OCC(F)(F)c1cc(Cl)sc12 [Compound 329] | > 0.5 | 90.0 | 
10 | C[C@H]1C[C@@]2(C[C@@H](c3cn(CC(C)(C)O)nn3)N1)OC[C@@H](O)c1cc(Cl)sc12 [Compound 247] | > 0.5 | 91.0 | 
11 | C[C@H]1C[C@@]2(C[C@@H](c3cnn(C4CCS(=O)(=O)C4)c3)N1)OCCc1cc(Cl)sc12 (stereo partly drawn) [Compound 97] | < 0.05 |  | Emax: 99%
12 | C[C@H]1C[C@@]2(C[C@@H](c3cccnn3)N1)OCCc1cc(Cl)sc12 (racemic) [Compound 92] | < 0.05 |  | Emax [2]: 100%
13 | CCC(O)Cn1cc([C@@H]2C[C@]3(C[C@H](C)N2)OCC(F)(F)c2cc(Cl)sc23)nn1 (stereo partly drawn) [Compound 325] | 0.05 to 0.5 | 98.0 | 
14 | C[C@H]1C[C@@]2(C[C@@H](c3cn(CCCS(C)(=O)=O)nn3)N1)OC[C@@H](O)c1cc(Cl)sc12 [Compound 228] | 0.05 to 0.5 | 100.0 | 
15 | COc1ccc2[nH]c([C@@H]3C[C@]4(C[C@H](C)N3)OCCc3cc(Cl)sc34)cc2n1 (racemic) [Compound 84] | < 0.05 |  | Emax [2]: 99.8%
16 | C[C@H]1C[C@@]2(C[C@@H](c3cccc(C#N)n3)N1)OCCc1cc(Cl)sc12 (racemic) [Compound 53] | < 0.05 | 99.3 | 
17 | C[C@H]1C[C@@]2(C[C@@H](c3ccn(C)n3)N1)OCCc1cc(Cl)sc12 (racemic) [Compound 118] | 0.05 to 0.5 | 99.3 | 
18 | C[C@H]1C[C@@]2(C[C@@H](c3cn(Cc4cccc(O)c4)nn3)N1)OCC(F)(F)c1cc(Cl)sc12 [Compound 320] | > 0.5 | 95.0 | 
19 | C[C@H]1C[C@@]2(C[C@@H](c3cn(C)nn3)N1)OC[C@@H](O)c1sc(Cl)cc12 [Compound 182] | < 0.05 |  | Emax [2]: 100%
20 | C[C@H]1C[C@@]2(C[C@@H](c3cc4n(n3)CCCO4)N1)OCCc1cc(Cl)sc12 (racemic) [Compound 131] | 0.05 to 0.5 | 99.3 | 
21 | C[C@H]1C[C@@]2(C[C@@H](c3c[nH]cn3)N1)OCCc1cc(Cl)sc12 (racemic) [Compound 85] | < 0.05 |  | Emax [2]: 99.3%

Row | Compound | IC90 [1] [µM] | Multi-Tox Assay Max Activity (%) [2] [%] | further results
22 | CC1CC2(CC(c3cn(CC4CC4)nn3)N1)OCCc1cc(Cl)sc12 (stereo not drawn) [Compound 122] | 0.05 to 0.5 | 99.7 | 
23 | C[C@H]1C[C@@]2(C[C@@H](c3cn(Cc4ccc(C#N)nc4)nn3)N1)OC[C@@H](O)c1cc(Cl)sc12 [Compound 236] | 0.05 to 0.5 | 100.0 | 
24 | COCC1(Cn2cc([C@@H]3C[C@]4(C[C@H](C)N3)OC[C@@H](O)c3cc(Cl)sc34)nn2)CC1 [Compound 270] | > 0.5 | 93.0 | 
25 | COc1cccc(C2CC3(CC(C)N2)OCCc2cc(Cl)sc23)n1 (mixture of isomers) [Compound 135] | 0.05 to 0.5 | 98.0 | 
26 | C[C@H]1C[C@@]2(C[C@@H](c3cn(CC4CCC(=O)NC4)nn3)N1)OCC(F)(F)c1cc(Cl)sc12 (stereo partly drawn) [Compound 368] |  |  | IC90 [3]: > 0.5 µM; Multi-Tox Assay Max Activity (%) [4]: 96.0%; pIC50 (Multi-Tox Assay, IP50 = IC50 for cell proliferation, APOL1 variant not stated in Table 46): 6.30 to 7.30
27 | CCC(O)Cn1cc([C@@H]2C[C@]3(C[C@H](C)N2)OC[C@@H](O)c2cc(Cl)sc23)nn1 (stereo partly drawn) [Compound 284] | 0.05 to 0.5 | 101.0 | 
28 | C[C@H]1C[C@@]2(C[C@@H](c3cn(CC4CCCCO4)nn3)N1)OC[C@@H](O)c1cc(Cl)sc12 (stereo partly drawn) [Compound 227] | 0.05 to 0.5 | 100.0 | 
29 | CC(C)c1cc2c(s1)C1(C[C@@H](C)N[C@@H](C)C1)OCC2 (single isomer, unassigned) [Compound 200] | > 0.5 |  | Emax [2]: 97%
30 | C[C@H]1C[C@@]2(C[C@@H](c3cn(CC4CCC4)nn3)N1)OC[C@@H](O)c1cc(Cl)sc12 [Compound 250] | 0.05 to 0.5 | 95.0 | 
31 | COc1ccc(C2CC3(CC(C)N2)OCCc2cc(Cl)sc23)nc1 (stereo not drawn) [Compound 34] | < 0.05 |  | 
32 | C[C@H]1C[C@@]2(C[C@@H](c3cn(CCCS(C)(=O)=O)nn3)N1)OCC(F)(F)c1cc(Cl)sc12 [Compound 344] | 0.05 to 0.5 |  | 
33 | C[C@H]1C[C@@]2(C[C@@H](c3ccnc(O)c3)N1)OCCc1cc(Cl)sc12 (racemic) [Compound 112] | < 0.05 | 100.0 | 
34 | COc1ccc(C(O)Cn2cc([C@@H]3C[C@]4(C[C@H](C)N3)OCC(F)(F)c3cc(Cl)sc34)nn2)cc1 (stereo partly drawn) [Compound 348] | > 0.5 | 97.0 | 
35 | COc1ccc([C@@H]2C[C@]3(C[C@H](C)N2)OCCc2cc(Cl)sc23)cc1C#N (racemic) [Compound 62] | < 0.05 |  | Emax [2]: 99.3%
36 | C[C@H]1C[C@@]2(C[C@@H](c3cn(CC4CCOCC4)nn3)N1)OCC(F)(F)c1cc(Cl)sc12 [Compound 309] | 0.05 to 0.5 | 97.0 | 
37 | C[C@H]1C[C@@]2(C[C@@H](c3ccccc3)N1)OCCc1cc(Cl)sc12 (racemic) [Compound 81] | < 0.05 |  | Emax [2]: 99.7%
38 | C[C@H]1CC2(C[C@H](C)N1)OCCc1sc(C(F)(F)F)cc12 (stereo partly drawn) [Compound 195] | > 0.5 |  | Emax [2]: 76%
39 | Cc1nccn1CCCn1cc([C@@H]2C[C@]3(C[C@H](C)N2)OCC(F)(F)c2cc(Cl)sc23)nn1 [Compound 341] | > 0.5 | 98.0 | 
40 | COCCn1cc([C@@H]2C[C@]3(C[C@H](C)N2)OCCc2cc(Cl)sc23)cn1 (racemic) [Compound 90] | < 0.05 |  | Emax [2]: 100%
41 | C[C@H]1C[C@@]2(C[C@@H](c3cn(Cc4ccccn4)nn3)N1)OCC(F)(F)c1cc(Cl)sc12 [Compound 332] | 0.05 to 0.5 | 96.0 | 
